Source: PubChem BioAssay (NCI)
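Results reflect a 48-hour exposure of cells in 96-well plates to compound at five concentrations. At the GI50, growth is halved. At the TGI there is no net growth.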

Columns and labels:
Assay in all cases: NCI-60 cell line screen, 48 h
[1] = system: 786-0 renal
[2] = system: A549 NSCLC
[3] = system: DU-145 prostate
[4] = system: NCI-H23 lung
[5] = system: UACC-257 melanoma
[6] = system: SK-MEL-2 melanoma
[7] = system: OVCAR-5 ovarian
[8] = system: HOP-62 NSCLC
[9] = system: OVCAR-8 ovarian
[10] = system: MDA-MB-435

SMILES | GI50 [1] | TGI [1] | GI50 [2] | TGI [2] | GI50 [3] | TGI [3] | GI50 [4] | TGI [4] | GI50 [5] | TGI [5] | GI50 [6] | TGI [6] | GI50 [7] | TGI [7] | GI50 [8] | TGI [8] | GI50 [9] | TGI [9] | GI50 [10] | TGI [10]
COC(=O)c1cc(-c2ccc(OC)c(OC)c2)[nH]c1N/N=C/c1c(Cl)cccc1Cl | 0.83 µM | 4.32 µM | 0.948 µM | 8.28 µM | 0.448 µM | 1.93 µM | 0.848 µM | 13 µM | 0.723 µM | > 23.1 µM | 0.832 µM | 7.14 µM | 1.91 µM | 7.42 µM | 1.17 µM | 10.1 µM | 1.31 µM | 8.67 µM | 0.127 µM | 0.562 µM
Cc1[nH]c(-c2cc(N)ccc2Cl)c2c1C(=O)CCCC2 | 3.24 µM | > 100 µM | 7.91 µM | > 100 µM | 13.1 µM | > 100 µM | 5.06 µM | 64.6 µM | 3.49 µM | > 100 µM | 7.65 µM | 60.7 µM | 6.54 µM | > 100 µM | 2.29 µM | > 100 µM | 3.26 µM | > 100 µM | 3.24 µM | 19.5 µM
Nc1n[nH]c2ccc([C@@H]3Nc4cc5c(cc4[C@H]4C6CCC(C6)[C@@H]34)C(=O)NC5)cc12 (stereo partly drawn) | 0.557 µM | > 100 µM | 1.56 µM | > 100 µM | 0.416 µM | > 40.7 µM | 0.431 µM | > 100 µM | > 100 µM | > 100 µM | 15 µM | > 100 µM | 1.06 µM | > 100 µM | 0.513 µM | > 100 µM | 0.445 µM | > 100 µM | 0.126 µM | 0.49 µM
Cc1[nH]nc(-c2ccon2)c1N=O |  | 39.2 µM |  | 57.6 µM |  | 41.2 µM |  | 45.8 µM |  | 31.7 µM |  | > 100 µM |  | 35.1 µM |  | 41.9 µM |  | 31.6 µM |  | 41 µM
CC1C=CC(OC(=O)C(C)(O)CCC(O)(C(=O)OC2CC(O)C(C(C)C)CC2(C)O)C(C)C)(C(C)C)CC1 (stereo not drawn) | 0.681 µM | 1.37 µM | 0.567 µM | 1.39 µM | 0.272 µM | 0.608 µM | 0.591 µM | 1.33 µM | 0.911 µM | 2.56 µM | 0.769 µM | 1.64 µM | 0.665 µM | 1.35 µM | 0.641 µM | 1.66 µM | 0.835 µM | 2.69 µM | 0.521 µM | 1.13 µM
C1CSCCSCCCSCCSCCCSCCSCCCSCCSC1 |  | > 100 µM |  | > 100 µM |  | > 100 µM |  | > 100 µM |  | > 100 µM |  | > 100 µM |  | > 100 µM |  | > 100 µM |  | > 100 µM |  | > 100 µM
C=CCc1cc(Nc2c3ccc(Cl)cc3nc3ccc(OC)cc23)cc(CN(CC)CC)c1O | 2.31 µM | 10.1 µM | 3.26 µM | 13.9 µM | 1.96 µM | 14.2 µM | 0.559 µM | 9.91 µM | 2.21 µM | 9.27 µM | 1.9 µM | 4.93 µM | 6.75 µM | 26 µM | 2.92 µM | 13.5 µM | 1.44 µM |  | 2.3 µM | 11.8 µM
COc1cc(C(=O)c2cc(C)c3[nH]c4ccc(O)cc4c3c2C)cc(OC)c1OC | < 0.0184 µM | > 22.2 µM | 0.0191 µM | > 100 µM | 0.0351 µM | > 26.5 µM | 0.0335 µM | > 40 µM | 6.42 µM | > 100 µM | 0.457 µM | > 100 µM | 0.0511 µM | > 100 µM | 0.0297 µM | > 70.9 µM | 0.0317 µM | > 100 µM | < 0.01 µM | 0.018 µM
Cc1ccc(C2C3Cc4ccccc4C3=NN2c2ccc(S(=O)(=O)/N=c3\scc(-c4ccccc4)n3-c3ccccc3)cc2)cc1 (stereo not drawn) | 32 µM | > 100 µM | 19 µM | 60.1 µM | 24.7 µM | 81.9 µM |  |  | 20.4 µM | 43.3 µM | 21.9 µM | 52.6 µM |  |  | 40.2 µM | > 100 µM | 21.9 µM | 58.5 µM | 17.6 µM | 37.7 µM
N/C(=N\OC(=O)c1ccccc1)C(Cc1ccccc1)C(=O)NOC(=O)c1ccccc1 (stereo not drawn) | 3.04 µM | 8 µM | 1.52 µM | 3.22 µM | 1.58 µM | 3.07 µM | 3.54 µM | 17.4 µM | 5.32 µM | 18.5 µM | 2.16 µM | 4.17 µM | 9.1 µM | 24.3 µM | 1.37 µM | 2.83 µM | 2.11 µM | 6.53 µM | 1.76 µM | 3.9 µM
COc1cc2cc(Oc3ccc(NC(=O)c4ccc(Cl)c(Cl)c4)cc3)c(C)nc2cc1OC | > 100 µM | > 100 µM | > 100 µM | > 100 µM | > 100 µM | > 100 µM | 6.68 µM | > 100 µM | > 100 µM | > 100 µM | > 100 µM | > 100 µM | > 100 µM | > 100 µM | > 100 µM | > 100 µM | > 100 µM | > 100 µM | > 100 µM | > 100 µM
CCOC(=O)c1cc2c(cc1Cl)SC(=Nc1ccccc1)N(S(=O)(=O)c1ccc(Br)s1)S2(=O)=O | 17.5 µM | 32.6 µM | 21.4 µM | 53.8 µM | 19 µM | 37 µM | 18.3 µM | 42.2 µM | 13.5 µM | 30.4 µM | 15.8 µM | 43.3 µM | 22 µM | 50.8 µM | 23.3 µM | 44.2 µM | 17 µM | 39.3 µM | 13.4 µM | 28.3 µM
CCC(=O)Nc1ccc(N2C(=O)/C(=C/c3ccc(OC)cc3)N=C2c2ccccc2)cc1 | 16.5 µM | > 50 µM | 6.27 µM | 27 µM | 10.4 µM | > 50 µM | 13.3 µM | > 50 µM | 22.2 µM | > 50 µM | > 50 µM | > 50 µM | > 50 µM | > 50 µM |  |  | 7.38 µM | > 50 µM | 20.5 µM | > 50 µM
